This experiment deals with LSD-1 enzyme (Homo sapiens (Human), UniProt O60341). Kind of experiment: LANCE LSD1/KDM1A demethylase assay (LSD1 histone demethylase biochemical assay). The conditions noted are these: 1 nM LSD-1 enzyme, 1 hour preincubation at 25° C., Biotin-labeled Histone H3 peptide substrate.
`Cc1ncc(-c2c(-c3ccc(C#N)cc3)nc(N3CCC(N(C)C)CC3)n3ccnc23)cc1C(F)F` [Example 132, 4-{8-[5-(difluoromethyl)-6-methylpyridin-3-yl]-5-[4-(dimethylamino)piperidin-1-yl]imidazo[1,2-c]pyrimidin-7-yl}benzonitrile]: the IC50 (as a rule, the point on the concentration scale where inhibition reaches its midpoint) fell in the range of 0.05 to 0.5 µM.
Next, `C[C@@H](O)CN1CCC[C@@H](COc2nc(-c3ccc(C#N)cc3)c(-c3ccc4c(c3)oc(=O)n4C)c3nccn23)C1` [Example 133, 4-[5-({(3R)-1-[(2R)-2-hydroxypropyl]piperidin-3-yl}methoxy)-8-(3-methyl-2-oxo-2,3-dihydro-1,3-benzoxazol-6-yl)imidazo[1,2-c]pyrimidin-7-yl]benzonitrile]: 0.05 to 0.5 µM.
Next, `C[C@H](O)CN1CCC[C@@H](COc2nc(-c3ccc(C#N)cc3)c(-c3ccc4c(c3)oc(=O)n4C)c3nccn23)C1` [Example 134, 4-[5-({(3R)-1-[(2S)-2-hydroxypropyl]piperidin-3-yl}methoxy)-8-(3-methyl-2-oxo-2,3-dihydro-1,3-benzoxazol-6-yl)imidazo[1,2-c]pyrimidin-7-yl]benzonitrile]: not above 0.05 µM; `Cn1c(=O)oc2cc(-c3c(-c4ccc(C#N)cc4)nc(OC[C@@H]4CCCN(CC(C)(C)O)C4)n4ccnc34)ccc21` [Example 135, 4-[5-{[(3R)-1-(2-hydroxy-2-methylpropyl)piperidin-3-yl]methoxy}-8-(3-methyl-2-oxo-2,3-dihydro-1,3-benzoxazol-6-yl)imidazo[1,2-c]pyrimidin-7-yl]benzonitrile]: 0.05 to 0.5 µM.
Compound `C[C@@H](O)CN1CCC[C@@H](COc2nc(-c3ccc(C#N)cc3)c(-c3cnc4c(cnn4C)c3)c3nccn23)C1` [Example 136, 4-[5-({(3R)-1-[(2R)-2-hydroxypropyl]piperidin-3-yl}methoxy)-8-(1-methyl-1H-pyrazolo[3,4-b]pyridin-5-yl)imidazo[1,2-c]pyrimidin-7-yl]benzonitrile] displayed an IC50 of 0.05 to 0.5 µM.
Turning to `C[C@H](O)CN1CCC[C@@H](COc2nc(-c3ccc(C#N)cc3)c(-c3cnc4c(cnn4C)c3)c3nccn23)C1` [Example 137, 4-[5-({(3R)-1-[(2S)-2-hydroxypropyl]piperidin-3-yl}methoxy)-8-(1-methyl-1H-pyrazolo[3,4-b]pyridin-5-yl)imidazo[1,2-c]pyrimidin-7-yl]benzonitrile], the half-inhibitory concentration (IC50) is not above 0.05 µM.
Next, `Cn1ncc2cc(-c3c(-c4ccc(C#N)cc4)nc(OC[C@@H]4CCCN(CC(C)(C)O)C4)n4ccnc34)cnc21` [Example 138, 4-[5-{[(3R)-1-(2-hydroxy-2-methylpropyl)piperidin-3-yl]methoxy}-8-(1-methyl-1H-pyrazolo[3,4-b]pyridin-5-yl)imidazo[1,2-c]pyrimidin-7-yl]benzonitrile]: 0.05 to 0.5 µM.

The values are drawn from patent US9944647B2 (Incyte Corporation, priority 2015, dated 2018).
